{"source": "patent US8927717B1", "about": "“Thiochromeno[2,3-c]quinolin-12-one derivatives, preparation method and application thereof” (National Defense Medical Center, priority 2014, dated 2015)", "type_in_all_cases": "cell-based", "key": {"CCRF-CEM": {"system": "CCRF-CEM"}, "K-562": {"system": "K-562"}, "MOLT-4": {"system": "MOLT-4"}, "RPMI-8226": {"system": "RPMI-8226"}, "SR": {"system": "SR"}, "A549/ATCC": {"system": "A549/ATCC"}, "NCI-H226": {"system": "NCI-H226"}, "NCI-H23": {"system": "NCI-H23"}, "NCI-H522": {"system": "NCI-H522"}, "HCT-116": {"system": "HCT-116"}, "HCT-15": {"system": "HCT-15"}, "KM12": {"system": "KM12", "experiment": "cells"}, "SF-268": {"system": "SF-268"}, "SF-295": {"system": "SF-295"}, "U251": {"system": "U251", "details": "U251, five dose"}, "LOX IMVI": {"system": "LOX IMVI", "details": "LOX IMVI, five dose"}, "MALME-3M": {"system": "MALME-3M"}, "MDA-MB-435": {"system": "MDA-MB-435"}, "SK-MEL-28": {"system": "SK-MEL-28"}, "SK-MEL-5": {"system": "SK-MEL-5", "details": "Homo sapiens; SK-MEL-5; five dose"}, "[1]": {"details": "Leukemia, 10^−5 molar, 48 hours, SRB"}, "[2]": {"details": "Homo sapiens, A549/ATCC, five dose"}, "[3]": {"details": "Non-small cell lung cancer, 10^−5 molar, 48 hours, SRB"}, "[4]": {"details": "Homo sapiens, NCI-H23, five dose"}, "[5]": {"details": "Homo sapiens, NCI-H522, five dose"}, "[6]": {"details": "Colon cancer, 10^−5 molar, 48 hours, SRB"}, "[7]": {"details": "Homo sapiens, HCT-116, five dose"}, "[8]": {"details": "Homo sapiens, HCT-15, five dose"}, "[9]": {"details": "CNS cancer, 10^−5 molar, 48 hours, SRB"}, "[10]": {"details": "Homo sapiens, MALME-3M, five dose"}, "[11]": {"details": "Melanoma, 10^−5 molar, 48 hours, SRB"}, "[12]": {"details": "Homo sapiens, SK-MEL-28, five dose"}}}
{"smiles": "NCCNc1nc2ccccc2c2c(=O)c3cc(Cl)ccc3sc12", "note": "[Compound N14, 6-((2-Aminoethyl)amino)-10-chloro-12H-thiochromeno[2,3-c]quinolin-12-one]", "values": [{"measurement": "TGI", "setting": "CCRF-CEM; CCRF-CEM, five dose", "result": 3.65, "unit": "µM"}, {"measurement": "GI50", "setting": "CCRF-CEM; Homo sapiens, CCRF-CEM, five dose", "result": 1750, "unit": "nM"}, {"measurement": "CC50", "setting": "CCRF-CEM; Homo sapiens, CCRF-CEM, five dose, read-out: LC50 (the source's name)", "result": 7.64, "unit": "µM"}, {"measurement": "Growth percent CCRF-CEM", "setting": "CCRF-CEM; [1]", "result": "−39.61", "unit": "%"}, {"measurement": "GI50", "setting": "K-562; Homo sapiens, K562, K-562, five dose", "result": 1690, "unit": "nM"}, {"measurement": "CC50", "setting": "K-562; Homo sapiens, K562, K-562, five dose, read-out: LC50 (the source's name)", "result": 7.84, "unit": "µM"}, {"measurement": "TGI", "setting": "K-562; K-562, five dose", "result": 3.65, "unit": "µM"}, {"measurement": "Growth percent K-562", "setting": "K-562; [1]", "result": "−57.17", "unit": "%"}, {"measurement": "GI50", "setting": "MOLT-4; Homo sapiens, MOLT-4, five dose", "result": 2020, "unit": "nM"}, {"measurement": "CC50", "setting": "MOLT-4; Homo sapiens, MOLT-4, five dose, read-out: LC50 (the source's name)", "result": 7.77, "unit": "µM"}, {"measurement": "Growth percent MOLT-4", "setting": "MOLT-4; [1]", "result": "−58.82", "unit": "%"}, {"measurement": "TGI", "setting": "MOLT-4; MOLT-4, five dose", "result": 3.96, "unit": "µM"}, {"measurement": "GI50", "setting": "RPMI-8226; Homo sapiens, RPMI-8226, five dose", "result": 2260, "unit": "nM"}, {"measurement": "CC50", "setting": "RPMI-8226; Homo sapiens, RPMI-8226, five dose, read-out: LC50 (the source's name)", "result": 62.3, "unit": "µM"}, {"measurement": "Growth percent RPMI-8226", "setting": "RPMI-8226; [1]", "result": "−27.48", "unit": "%"}, {"measurement": "TGI", "setting": "RPMI-8226; RPMI-8226, five dose", "result": 4.92, "unit": "µM"}, {"measurement": "GI50", "setting": "SR; Homo sapiens, SR, five dose", "result": 1810, "unit": "nM"}, {"measurement": "LC50 (50% lethal concentration)", "setting": "SR; Homo sapiens, SR, five dose", "result": "> 100", "unit": "µM"}, {"measurement": "Growth percent SR", "setting": "SR; [1]", "result": "−51.67", "unit": "%"}, {"measurement": "TGI", "setting": "SR; SR, five dose", "result": 4.30, "unit": "µM"}, {"measurement": "TGI", "setting": "A549/ATCC; A549/ATCC, five dose", "result": 3.50, "unit": "µM"}, {"measurement": "GI50", "setting": "A549/ATCC; [2]", "result": 1830, "unit": "nM"}, {"measurement": "LC50", "setting": "A549/ATCC; [2]", "result": 6.68, "unit": "µM"}, {"measurement": "Growth percent A549/ATCC", "setting": "A549/ATCC; [3]", "result": "−88.76", "unit": "%"}, {"measurement": "GI50", "setting": "NCI-H226; Homo sapiens, NCI-H226, five dose", "result": 1360, "unit": "nM"}, {"measurement": "TGI", "setting": "NCI-H226; NCI-H226, five dose", "result": 2.95, "unit": "µM"}, {"measurement": "Growth percent NCI-H226", "setting": "NCI-H226; [3]", "result": 28.55, "unit": "%"}, {"measurement": "GI50", "setting": "NCI-H23; [4]", "result": 1720, "unit": "nM"}, {"measurement": "LC50 (lethal concentration 50%)", "setting": "NCI-H23; [4]", "result": 6.63, "unit": "µM"}, {"measurement": "TGI", "setting": "NCI-H23; NCI-H23, five dose", "result": 3.37, "unit": "µM"}, {"measurement": "Growth percent NCI-H23", "setting": "NCI-H23; [3]", "result": "−5.25", "unit": "%"}, {"measurement": "GI50", "setting": "NCI-H522; [5]", "result": 1860, "unit": "nM"}, {"measurement": "LC50 (concentration causing 50% net cell kill)", "setting": "NCI-H522; [5]", "result": 6.92, "unit": "µM"}, {"measurement": "TGI", "setting": "NCI-H522; NCI-H522, five dose", "result": 3.59, "unit": "µM"}, {"measurement": "Growth percent NCI-H522", "setting": "NCI-H522; [3]", "result": "−66.59", "unit": "%"}, {"measurement": "Growth percent HCT-116", "setting": "HCT-116; [6]", "result": "−48.19", "unit": "%"}, {"measurement": "TGI", "setting": "HCT-116; HCT-116, five dose", "result": 2.99, "unit": "µM"}, {"measurement": "GI50", "setting": "HCT-116; [7]", "result": 1630, "unit": "nM"}, {"measurement": "LC50 (concentration killing 50% of cells)", "setting": "HCT-116; [7]", "result": 5.47, "unit": "µM"}, {"measurement": "Growth percent HCT-15", "setting": "HCT-15; [6]", "result": "−45.92", "unit": "%"}, {"measurement": "TGI", "setting": "HCT-15; HCT-15, five dose", "result": 3.12, "unit": "µM"}, {"measurement": "GI50", "setting": "HCT-15; [8]", "result": 1580, "unit": "nM"}, {"measurement": "LC50", "setting": "HCT-15; [8]", "result": 6.16, "unit": "µM"}, {"measurement": "Growth percent KM12", "setting": "KM12; [6]", "result": "−85.99", "unit": "%"}, {"measurement": "GI50", "setting": "KM12; Homo sapiens, KM12, five dose", "result": 1670, "unit": "nM"}, {"measurement": "LC50", "setting": "KM12; Homo sapiens, KM12, five dose", "result": 5.79, "unit": "µM"}, {"measurement": "TGI", "setting": "KM12; KM12, five dose", "result": 3.11, "unit": "µM"}, {"measurement": "Growth percent SF-268", "setting": "SF-268; [9]", "result": "−67.65", "unit": "%"}, {"measurement": "GI50", "setting": "SF-268; Homo sapiens, SF-268, five dose", "result": 1590, "unit": "nM"}, {"measurement": "CC50", "setting": "SF-268; Homo sapiens, SF-268, five dose, read-out: LC50 (the source's name)", "result": 6.55, "unit": "µM"}, {"measurement": "TGI", "setting": "SF-268; SF-268, five dose", "result": 3.23, "unit": "µM"}, {"measurement": "Growth percent SF-295", "setting": "SF-295; [9]", "result": "−74.29", "unit": "%"}, {"measurement": "GI50", "setting": "SF-295; Homo sapiens, SF-295, five dose", "result": 1790, "unit": "nM"}, {"measurement": "TGI", "setting": "SF-295; SF-295, five dose", "result": 3.63, "unit": "µM"}, {"measurement": "GI50", "setting": "U251; Homo sapiens, U-251", "result": 1630, "unit": "nM"}, {"measurement": "LC50", "setting": "U251; Homo sapiens, U-251", "result": 5.78, "unit": "µM"}, {"measurement": "TGI", "setting": "U251", "result": 3.07, "unit": "µM"}, {"measurement": "GI50", "setting": "LOX IMVI; Homo sapiens", "result": 1680, "unit": "nM"}, {"measurement": "LC50", "setting": "LOX IMVI; Homo sapiens", "result": 5.96, "unit": "µM"}, {"measurement": "TGI", "setting": "LOX IMVI", "result": 3.16, "unit": "µM"}, {"measurement": "GI50", "setting": "MALME-3M; [10]", "result": 1980, "unit": "nM"}, {"measurement": "LC50", "setting": "MALME-3M; [10]", "result": 7.93, "unit": "µM"}, {"measurement": "TGI", "setting": "MALME-3M; MALME-3M, five dose", "result": 3.96, "unit": "µM"}, {"measurement": "Growth percent MALME-3M", "setting": "MALME-3M; [11]", "result": "−48.42", "unit": "%"}, {"measurement": "GI50", "setting": "MDA-MB-435; Homo sapiens, MDA-MB-435, five dose", "result": 1820, "unit": "nM"}, {"measurement": "TGI", "setting": "MDA-MB-435; MDA-MB-435, five dose", "result": 3.59, "unit": "µM"}, {"measurement": "Growth percent MDA-MB-435", "setting": "MDA-MB-435; [11]", "result": "−85.39", "unit": "%"}, {"measurement": "GI50", "setting": "SK-MEL-28; [12]", "result": 1750, "unit": "nM"}, {"measurement": "LC50", "setting": "SK-MEL-28; [12]", "result": 5.66, "unit": "µM"}, {"measurement": "Growth percent SK-MEL-28", "setting": "SK-MEL-28; [11]", "result": "−96.20", "unit": "%"}, {"measurement": "TGI", "setting": "SK-MEL-28; SK-MEL-28, five dose", "result": 3.15, "unit": "µM"}, {"measurement": "GI50", "setting": "SK-MEL-5", "result": 1510, "unit": "nM"}]}
